One block for each compound: values may come before it. Calls of active or inactive are those of the source. The rule behind the calls is not given here.
Legend:
[1] = target: T1, Dual specificity calcium/calmodulin-dependent 3',5'-cyclic nucleotide phosphodiesterase 1C (Homo sapiens, UniProt Q14123); experiment: Inhibition of PDE1C (147 to 531 residues) (unknown origin) expressed in Escherichia coli BL21 at 1000 nM [3H]-cGMP as substrate measured for 15 mins by liquid scintillation counter method relative to control
T1 sequence (Q14123 whole entry, the tested form may be a part): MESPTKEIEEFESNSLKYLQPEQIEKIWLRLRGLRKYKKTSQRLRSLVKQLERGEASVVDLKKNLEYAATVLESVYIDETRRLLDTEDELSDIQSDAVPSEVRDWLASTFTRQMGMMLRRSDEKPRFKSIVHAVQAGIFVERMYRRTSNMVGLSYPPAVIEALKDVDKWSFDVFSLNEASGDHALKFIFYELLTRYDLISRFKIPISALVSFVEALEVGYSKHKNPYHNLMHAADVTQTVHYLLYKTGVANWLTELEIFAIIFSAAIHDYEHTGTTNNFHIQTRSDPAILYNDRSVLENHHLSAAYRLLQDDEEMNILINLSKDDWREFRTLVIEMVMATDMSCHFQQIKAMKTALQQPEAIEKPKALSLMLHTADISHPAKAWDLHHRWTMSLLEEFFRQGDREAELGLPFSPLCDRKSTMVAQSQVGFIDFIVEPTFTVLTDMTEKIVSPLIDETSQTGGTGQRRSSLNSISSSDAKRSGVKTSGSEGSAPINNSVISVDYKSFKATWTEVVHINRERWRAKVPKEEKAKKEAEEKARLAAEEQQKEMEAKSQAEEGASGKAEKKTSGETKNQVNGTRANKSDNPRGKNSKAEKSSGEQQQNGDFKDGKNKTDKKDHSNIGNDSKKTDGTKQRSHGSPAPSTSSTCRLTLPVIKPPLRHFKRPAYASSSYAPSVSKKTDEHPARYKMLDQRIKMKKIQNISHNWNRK

[2] = target: T1, Dual specificity calcium/calmodulin-dependent 3',5'-cyclic nucleotide phosphodiesterase 1C; experiment: Inhibition of PDE1C (147 to 531 residues) (unknown origin) expressed in Escherichia coli BL21 using [3H]-cGMP as substrate measured for 15 mins by liquid scintillation counter method
[3] = species on record: Homo sapiens; experiment: Selectivity ratio of IC50 for PDE4D (unknown origin) expressed in Escherichia coli BL21 to IC50 for PDE1C (147 to 531 residues) (unknown origin) expressed in Escherichia coli BL21
[4] = tested on: Rattus norvegicus; experiment: Antifibrotic activity in bleomycin-induced Sprague-Dawley rat lung fibrosis model assessed as decrease in alpha-smooth muscle actin level at 150 mg/kg, po administered daily for 28 days by Western blot analysis; type: functional, organism-based; conditions: time 28.0 day
[5] = tested on: Rattus norvegicus; experiment: Antifibrotic activity in bleomycin-induced Sprague-Dawley rat lung fibrosis model assessed as decrease in collagen I level at 150 mg/kg, po administered daily for 28 days by Western blot analysis; type: functional, organism-based; conditions: time 28.0 day
[6] = tested on: Rattus norvegicus; experiment: Antifibrotic activity in bleomycin-induced Sprague-Dawley rat lung fibrosis model assessed as decrease in fibronectin level at 150 mg/kg, po administered daily for 28 days by Western blot analysis; type: functional, organism-based; conditions: time 28.0 day

Structure (SMILES): COC(=O)C1=C(C)NC(C)=C(C(=O)OC)C1c1cccc(OC)c1
inhibition [1]: 7%

Structure (SMILES): COCCOC(=O)C1=C(C)NC(C)=C(C(=O)OC(C)C)C1c1cccc([N+](=O)[O-])c1 (stereo not drawn) [NIMODIPINE]
IC50 [2]: 1240 nM
Ratio IC50 [3]: 5.8

Structure (SMILES): Cc1ccc(=O)n(-c2ccccc2)c1
Activity [4]: Active
Activity [5]: Active
Activity [6]: Active

Now from value to compound:

inhibition [1]: 42%
Structure (SMILES): COC(=O)C1=C(C)NC(C)=C(C(=O)OC)C1c1ccc(F)c(F)c1

inhibition [1]: 43%
Structure (SMILES): COC(=O)C1=C(C)NC(C)=C(C(=O)OC)C1c1ccc(OC)c(OC)c1
